From ChEMBL document CHEMBL1126356, “Structure-activity relationships of the pyridazinone series of 5-lipoxygenase inhibitors” (Bioorg Med Chem Lett, 1992)
The source made the active and inactive calls. The rule behind the calls is not given here.

These compounds were tested against T1, Polyunsaturated fatty acid 5-lipoxygenase (Homo sapiens) (UniProt P09917) (assay: In vitro inhibition of 5-Lipoxygenase; Inactive.).
T1 sequence (whole entry): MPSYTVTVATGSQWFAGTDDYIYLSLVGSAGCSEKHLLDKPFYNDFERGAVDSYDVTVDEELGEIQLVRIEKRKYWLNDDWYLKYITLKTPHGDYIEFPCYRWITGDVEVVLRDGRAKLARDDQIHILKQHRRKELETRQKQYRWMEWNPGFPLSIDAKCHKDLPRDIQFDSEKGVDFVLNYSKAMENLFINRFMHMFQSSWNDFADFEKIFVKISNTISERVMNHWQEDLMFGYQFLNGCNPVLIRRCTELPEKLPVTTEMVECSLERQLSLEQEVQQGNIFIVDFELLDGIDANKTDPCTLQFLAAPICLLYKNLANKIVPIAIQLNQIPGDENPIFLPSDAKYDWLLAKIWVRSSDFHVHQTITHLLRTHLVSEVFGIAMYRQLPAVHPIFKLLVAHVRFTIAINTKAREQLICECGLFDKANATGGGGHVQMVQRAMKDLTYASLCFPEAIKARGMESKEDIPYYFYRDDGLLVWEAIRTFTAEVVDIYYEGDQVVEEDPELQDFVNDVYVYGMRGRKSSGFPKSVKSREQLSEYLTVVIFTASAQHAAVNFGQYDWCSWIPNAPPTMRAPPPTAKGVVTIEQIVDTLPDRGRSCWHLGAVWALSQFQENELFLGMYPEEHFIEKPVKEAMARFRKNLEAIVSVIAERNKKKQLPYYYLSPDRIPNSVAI

Row | SMILES | Activity
1 | O=C1CCCN(c2ccccc2)N1C(=O)c1ccccc1 | inactive
2 | O=C1CCCN(Cc2ccccc2)N1 | inactive
3 | O=C1CCCN(c2ccccc2)C1 | inactive
4 | O=C1CCCN(c2ccccc2)N1c1ccccc1 | inactive
5 | CCCCCN1CCCC(=O)N1 | inactive
6 | O=C1CCCNN1 | inactive
7 | CC1=NN(c2ccccc2)C(=O)CC1 | inactive
8 | C1=NN(c2ccccc2)CCC1 | inactive
9 | CN1C(=O)CCCN1c1ccccc1 | inactive
10 | O=C1CCC(c2ccccc2)=NN1 | inactive
11 | O=C1CCC(c2ccccc2)NN1 (stereo unspecified) | inactive
12 | O=C1CCCC(c2ccccc2)N1 (stereo unspecified) | inactive
13 | CCC(=O)N1C(=O)CCCN1c1ccccc1 | inactive
14 | CC1CCC(=O)N(c2ccccc2)N1 (stereo unspecified) | inactive
15 | O=C1CCCN(C2CCCCC2)N1 | inactive
16 | O=C1CCCC(c2ccccc2)=N1 | inactive
17 | c1ccc(N2CCCCN2)cc1 | inactive
18 | O=C1CCCN(C(=O)c2ccccc2)N1 | inactive

What follows are compounds tested against T2, Polyunsaturated fatty acid 5-lipoxygenase (Homo sapiens, UniProt P09917) (assay: Inhibitory activity against 5-lipoxygenase.).
T2 sequence (P09917 whole entry): T1 sequence (whole entry)

Row | SMILES | IC50 [µM]
19 | Cc1ccc(N2CCC(=O)N2)cc1 | 3.5
20 | CCCC(=O)NNc1ccccc1 | 52
21 | O=C1CCCN(c2cccc(Cl)c2)N1 | 2.5
22 | O=C1CCN(c2ccccc2Cl)N1 | 3.7
23 | O=C1CCCN(c2cccc(Br)c2)N1 | 1.8
24 | CC(=O)c1cccc(N2CCCC(=O)N2)c1 | 19
25 | CCc1ccccc1N1CCCC(=O)N1 | 39
26 | COc1ccccc1N1CCCC(=O)N1 | 204
27 | Cc1cccc(N2CCCC(=O)N2)c1 | 3.4
28 | CCCCCCCCCCCCN1CCCC(=O)N1 | 6
29 | CCc1ccc(N2CCCC(=O)N2)cc1 | 125
30 | N#Cc1cccc(N2CCCC(=O)N2)c1 | 9.3
31 | O=C1CCN(c2cccc(Cl)c2)N1 | 0.73
32 | O=C1CCCN(c2cccc(CO)c2)N1 | 53
33 | O=C1CCCN(c2ccccc2)N1 | 3.8
34 | Cc1ccc(N2CCCC(=O)N2)cc1 | 277

Row | SMILES | IC50 [µM]
35 | O=C1CCN(c2ccc(Cl)cc2)N1 | 1.1
36 | COc1ccc(N2CCCC(=O)N2)cc1 | 156
37 | CCc1cccc(N2CCCC(=O)N2)c1 | 3
38 | O=C1CCCN(c2ccccc2Cl)N1 | 99
39 | Cc1ccccc1N1CCCC(=O)N1 | 57
40 | COc1cccc(N2CCCC(=O)N2)c1 | 6.7
41 | Cc1ccccc1N1CCC(=O)N1 | 8.2
42 | O=C1CCCN(c2cccc(C(F)(F)F)c2)N1 | 5.2
43 | O=C1CCCN(c2cccc(F)c2)N1 | 5.5
44 | CCOC(=O)c1cccc(N2CCCC(=O)N2)c1 | 5.6
45 | O=C1CCCN(c2ccc(Cl)cc2)N1 | 79
46 | Cc1cccc(N2CCC(=O)N2)c1 | 1.3
47 | CCCCCCCCN1CCCC(=O)N1 | 23
48 | CC(C)(C)C(=O)c1cccc(N2CCCC(=O)N2)c1 | 15
49 | CC(=O)NNc1ccccc1 | 65

These compounds were tested against T2, Polyunsaturated fatty acid 5-lipoxygenase (assay: Inhibitory Activity against 5-Lipoxygenase was determined; IA=Inactive).

Row | SMILES | IC50
50 | CCOC(=O)CCCCN(N)c1ccccc1 | Not Active
51 | CCOC(=O)CCCCCN(N)c1ccccc1 | Not Active

These compounds were tested against T2, Polyunsaturated fatty acid 5-lipoxygenase (assay: Inhibitory Activity against 5-Lipoxygenase was determined; IA=Inactive at concentrations less than 32 uM).

Row | SMILES | IC50
52 | O=C1CCCCN(c2ccccc2)N1 | Not Active

The compounds below were run against T2, Polyunsaturated fatty acid 5-lipoxygenase (assay: Inhibitory Activity against 5-Lipoxygenase was determined; NA=No significant inhibitory activity up to 300 uM).

Row | SMILES | IC50
53 | O=C1CCCN(c2cccc(C(=O)O)c2)N1 | Not Active

What follows are compounds tested against T1, Polyunsaturated fatty acid 5-lipoxygenase (Homo sapiens) (assay: Inhibitory Activity against 5-Lipoxygenase at 30 uM was determined; Weakly active).

Row | SMILES | inhibition [%]
54 | O=C1CCC(=O)N(c2ccccc2)N1 | 24

The compounds below were run against T1, Polyunsaturated fatty acid 5-lipoxygenase (Homo sapiens) (assay: Inhibitory Activity against 5-Lipoxygenase at concentration 32 uM was determined).

Row | SMILES | inhibition [%]
55 | O=C1CCCCCN(c2ccccc2)N1 | 8

These compounds were tested on Rattus norvegicus (assay: Compound was tested for in vivo potency in the rat anaphylaxis assay).
Type: functional

Row | SMILES | ED50 [mg/kg]
56 | N#Cc1cccc(N2CCCC(=O)N2)c1 | 23
